Each structure is given as a SMILES string.

T1 sequence (P08581 25-1390): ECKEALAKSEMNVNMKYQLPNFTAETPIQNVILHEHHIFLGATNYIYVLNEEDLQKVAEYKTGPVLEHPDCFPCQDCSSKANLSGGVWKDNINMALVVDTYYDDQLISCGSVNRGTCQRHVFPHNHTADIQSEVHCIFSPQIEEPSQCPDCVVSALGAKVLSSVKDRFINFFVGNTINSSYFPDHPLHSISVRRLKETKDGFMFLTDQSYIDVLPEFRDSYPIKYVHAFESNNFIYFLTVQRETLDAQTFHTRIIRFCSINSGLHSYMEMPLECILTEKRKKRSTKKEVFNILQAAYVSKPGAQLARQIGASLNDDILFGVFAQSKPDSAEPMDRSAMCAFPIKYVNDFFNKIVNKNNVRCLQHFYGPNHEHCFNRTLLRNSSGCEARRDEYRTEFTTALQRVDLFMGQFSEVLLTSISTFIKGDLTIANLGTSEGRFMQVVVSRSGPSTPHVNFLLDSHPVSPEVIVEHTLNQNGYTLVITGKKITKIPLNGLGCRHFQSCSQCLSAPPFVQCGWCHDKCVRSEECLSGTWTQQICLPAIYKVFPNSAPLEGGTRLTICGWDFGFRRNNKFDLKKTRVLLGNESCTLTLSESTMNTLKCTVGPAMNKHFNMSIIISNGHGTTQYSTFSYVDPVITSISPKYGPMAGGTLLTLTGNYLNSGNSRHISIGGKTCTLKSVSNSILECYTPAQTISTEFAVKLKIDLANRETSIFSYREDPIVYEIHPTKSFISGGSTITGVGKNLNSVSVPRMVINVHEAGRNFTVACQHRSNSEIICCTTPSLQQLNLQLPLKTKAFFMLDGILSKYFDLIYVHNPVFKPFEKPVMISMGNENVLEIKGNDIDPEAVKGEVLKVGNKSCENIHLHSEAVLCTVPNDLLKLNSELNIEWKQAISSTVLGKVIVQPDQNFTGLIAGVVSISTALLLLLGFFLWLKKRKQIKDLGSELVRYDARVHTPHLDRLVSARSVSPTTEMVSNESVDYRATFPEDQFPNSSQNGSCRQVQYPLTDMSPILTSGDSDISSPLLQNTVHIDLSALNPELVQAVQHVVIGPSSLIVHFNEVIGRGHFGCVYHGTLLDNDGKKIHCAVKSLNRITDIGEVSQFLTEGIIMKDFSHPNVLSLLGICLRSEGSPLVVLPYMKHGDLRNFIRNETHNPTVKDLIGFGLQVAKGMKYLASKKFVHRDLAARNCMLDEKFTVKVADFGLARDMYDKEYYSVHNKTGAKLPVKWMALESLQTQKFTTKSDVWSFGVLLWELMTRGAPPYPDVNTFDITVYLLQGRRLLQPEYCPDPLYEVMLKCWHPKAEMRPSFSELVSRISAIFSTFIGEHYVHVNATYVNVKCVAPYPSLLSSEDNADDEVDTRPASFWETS

This assay concerns the target T1, HGFR (Homo sapiens, UniProt P08581).
T1 construct: endogenous in cells; host or cells: MKN-45 human gastric cancer cells
Nature of the assay: Inhibitory activity against the HGFR autophosphorylation using ELISA (MKN-45 cells). Format: cell-based. To be noted: 1 hr with test substance. An outline of the steps:
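MKN-45 gastric cancer cells, plated overnight in 1% FBS RPMI1640, treated with compound 1 h at 37° C and lysed. Lysate captured on anti-phosphotyrosine (PY20) plates, probed with anti-HGFR then HRP anti-rabbit IgG; TMB absorbance at 450 nm. Activity expressed as % of untreated extract (100%) versus lysis buffer blank (0%).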
A general note: An ELISA detects its analyte on a solid surface through an enzyme-linked reagent.
For the compound `CCN1CCC(N(C)C(=O)Nc2cc(Oc3ccc(NC(=O)C4(C(=O)Nc5ccccc5)CC4)c(F)c3)ccn2)CC1` [Example 60, N-(4-{[2-({[(1-Ethylpiperidin-4-yl)(methyl)amino]carbonyl}amino)pyridin-4-yl]oxy}-2-fluorophenyl)-N′-phenylcyclopropane-1′-dicarboxamide], the IC50 (as a rule, the point on the concentration scale where inhibition reaches its midpoint) stood at 8 nM.
As for `O=C(Nc1cc(Oc2ccc(NC(=O)C3(C(=O)Nc4ccc(F)cc4)CC3)c(F)c2)ccn1)N1CCC1` [Example 61, N-[4-({2-[(Azetidin-1-ylcarbonyl)amino]pyridin-4-yl]oxy}-2-fluorophenyl]-N′-(4-fluorophenyl)cyclopropane-1,1-dicarboxamide], the IC50 was 8 nM.
In turn, `O=C(Nc1cc(Oc2ccc(NC(=O)C3(C(=O)Nc4ccc(F)cc4)CC3)c(F)c2)ccn1)N1CCCC1` [Example 62, N-(4-Fluorophenyl)-N′-[2-fluoro-4-({2-[(pyrrolidin-1-ylcarbonyl)amino]pyridin-4-yl}oxy)phenyl]cyclopropane-1,1-dicarboxamide] displayed an IC50 of 11 nM.
Regarding `O=C(Nc1cc(Oc2ccc(NC(=O)C3(C(=O)Nc4ccc(F)cc4)CC3)c(F)c2)ccn1)N1CCOCC1` [Example 63, N-[2-Fluoro-4-({2-[(morpholin-4-ylcarbonyl)amino]pyridin-4-yl}oxy)phenyl]-N′-(4-fluorophenyl)cyclopropane-1,1-dicarboxamide], the midpoint of inhibition, the IC50, lay at 21 nM.
Consider `CN1CCN(C(=O)Nc2cc(Oc3ccc(NC(=O)C4(C(=O)Nc5ccc(F)cc5)CC4)c(F)c3)ccn2)CC1` [Example 64, N-{2-Fluoro-4-[(2-{[(1-methylpiperazin-4-yl)carbonyl]amino}pyridin-4-yl)oxy]phenyl}-N′-(4-fluorophenyl)cyclopropane-1,1-dicarboxamide], for which the half-inhibitory concentration (IC50) is 20 nM.
`O=C(Nc1cc(Oc2ccc(NC(=O)C3(C(=O)Nc4ccc(F)cc4)CC3)cc2F)ccn1)N1CCC1` [Example 65, N-[4-({2-[(Azetidin-1-ylcarbonyl)amino]pyridin-4-yl}oxy)-3-fluorophenyl]-N′-(4-fluorophenyl)cyclopropane-1,1-dicarboxamide] displayed a half-maximal inhibitory concentration (IC50) of 10 nM.
In the case of `O=C(Nc1cc(Oc2ccc(NC(=O)C3(C(=O)Nc4ccc(F)cc4)CC3)cc2F)ccn1)N1CCCC1` [Example 66, N-(4-Fluorophenyl)-N′-[3-fluoro-4-({2-[(pyrrolidin-1-ylcarbonyl)amino]pyridin-4-yl}oxy)phenyl]cyclopropane-1,1′-dicarboxamide] it was 13 nM.
Regarding `O=C(Nc1cc(Oc2ccc(NC(=O)C3(C(=O)Nc4ccc(F)cc4)CC3)cc2F)ccn1)N1CCOCC1` [Example 67, N-[3-Fluoro-4-({2-[(morpholin-4-ylcarbonyl)amino]pyridin-4-yl}oxy)phenyl]-N′-(4-fluorophenyl)-cyclopropane-1,1-dicarboxamide], the IC50 is 10 nM.
In the case of `O=C(Nc1cc(Oc2ccc(NC(=O)C3(C(=O)Nc4ccc(F)cc4)CC3)cc2)ccn1)N1CCOCC1` [Example 68, N-(4-Fluorophenyl)-N′-[4-({2-[(morpholin-4-ylcarbonyl)amino]pyridin-4-yl}oxy)phenyl]cyclopropane-1,1-dicarboxamide] it was 71 nM.
`O=C(Nc1cc(Oc2ccc(NC(=O)C3(C(=O)Nc4ccc(F)cc4)CC3)cc2)ccn1)N1CCCC1` [Example 69, N-(4-Fluorophenyl)-N′-[4-({2-[(pyrrolidin-1-ylcarbonyl)amino]pyridin-4-yl}oxy)phenyl]cyclopropane-1,1-dicarboxamide] returned a 50% inhibitory concentration (IC50) of 37 nM.
As to `O=C(Nc1cc(Oc2ccc(NC(=O)C3(C(=O)Nc4ccc(F)cc4)CC3)cc2)ccn1)N1CCC1` [Example 70, N-[4-({2-[(Azetidin-1-ylcarbonyl)amino]pyridin-4-yl}oxy)phenyl]-N′-(4-fluorophenyl)cyclopropane-1,1-dicarboxamide], it took 27 nM to reach half-maximal inhibition (IC50).
The result for `O=C(Nc1cc(Oc2ccc(NC(=O)C3(C(=O)Nc4ccc(F)cc4)CC3)c(F)c2)ccn1)N1CCC(N2CCNCC2)CC1` [Example 71, N-(4-Fluorophenyl)-N′-{2-fluoro-4-[(2-{[(4-piperazin-1-ylpiperidin-1-yl)carbonyl]amino}pyridin-4-yl)oxy]phenyl}cyclopropane-1,1-dicarboxamide] reads 11 nM; that for `O=C(Nc1cc(Oc2ccc(NC(=O)C3(C(=O)Nc4ccc(F)cc4)CC3)c(F)c2)ccn1)N1CC(O)C1` [Example 72, N-{2-Fluoro-4-[(2-{[(3-hydroxyazetidin-1-yl)carbonyl]amino}pyridin-4-yl)oxy]phenyl}-N′-(4-fluorophenyl)cyclopropane-1,1-dicarboxamide], 10 nM; that for `O=C(Nc1cc(Oc2ccc(NC(=O)C3(C(=O)Nc4ccc(F)cc4)CC3)c(F)c2)ccn1)N1CC(N2CCC2)C1` [Example 73, N-[4-({2-[(1,3′-Biazetidin-1′-ylcarbonyl)amino]pyridin-4-yl}oxy)-2-fluorophenyl]-N′-(4-fluorophenyl)cyclopropane-1,1-dicarboxamide], 8 nM.
As for `O=C(Nc1cc(Oc2ccc(NC(=O)C3(C(=O)Nc4ccc(F)cc4)CC3)c(F)c2)ccn1)N1CC(CO)C1` [Example 75], 13 nM corresponded to half-maximal inhibition (IC50).
The compound `CN(C)C1CN(C(=O)Nc2cc(Oc3ccc(NC(=O)C4(C(=O)Nc5ccc(F)cc5)CC4)c(F)c3)ccn2)C1` [Example 76, N-(4-{[2-({[3-(Dimethylamino)azetidin-1-yl]carbonyl}amino)pyridin-4-yl]oxy}-2-fluorophenyl)-N′-(4-fluorophenyl)cyclopropane-1,1-dicarboxamide] came in with a concentration for half-maximal inhibition (IC50) of 30 nM.
The result for `CN(C)CC1CN(C(=O)Nc2cc(Oc3ccc(NC(=O)C4(C(=O)Nc5ccc(F)cc5)CC4)c(F)c3)ccn2)C1` [Example 77, N-[4-({2-[({3-[(Dimethylamino)methyl]azetidin-1-yl}carbonyl)amino]pyridin-4-yl}oxy)-2-fluorophenyl]-N′-(4-fluorophenyl)cyclopropane-1,1-dicarboxamide] reads 13 nM.
Compound `COC1CN(C(=O)Nc2cc(Oc3ccc(NC(=O)C4(C(=O)Nc5ccc(F)cc5)CC4)c(F)c3)ccn2)C1` [Example 78, N-[2-Fluoro-4-[(2-{[(3-methoxyazetidin-1-yl)carbonyl]amino}pyridin-4-yl)oxy]phenyl}-N′-(4-fluorophenyl)cyclopropane-1,1-dicarboxamide] gave an IC50 of 15 nM.
Compound `COC1CN(C(=O)Nc2cc(Oc3ccc(NC(=O)C4(C(=O)Nc5ccc(F)cc5)CC4)cc3F)ccn2)C1` [Example 79] yielded an IC50 of 16 nM.
In the case of `O=C(Nc1cc(Oc2ccc(NC(=O)C3(C(=O)Nc4ccc(F)cc4)CC3)cc2F)ccn1)N1CC(O)C1` [Example 80, N-{3-Fluoro-4-[(2-{[(3-hydroxyazetidin-1-yl)carbonyl]amino}pyridin-4-yl)oxy]phenyl}-N′-(4-fluorophenyl)cyclopropane-1,1-dicarboxamide], the half-maximal inhibitory concentration (IC50) is 14 nM.
Compound `O=C(Nc1cc(Oc2cc(F)c(NC(=O)C3(C(=O)Nc4ccc(F)cc4)CC3)cc2F)ncn1)N1CC(CO)C1` [Example 99, N-(2,5-Difluoro-4-{[4-({[3-(hydroxymethyl)azetidin-1-yl]carbonyl}amino)pyrimidin-6-yl]oxy}phenyl)-N′-(4-fluorophenyl)cyclopropane-1,1-dicarboxamide] showed an IC50 of 14 nM.
The result for `CN1CCC(N(C)C(=O)Nc2cc(Oc3cc(F)c(NC(=O)C4(C(=O)Nc5ccc(F)cc5)CC4)cc3F)ncn2)CC1` [Example 100, N-(2,5-Difluoro-4-{[4-({[methyl(1-methylpiperidin-4-yl)amino]carbonyl}amino)pyrimidin-6-yl]oxy}phenyl)-N′-(4-fluorophenyl)cyclopropane-1,1-dicarboxamide] reads 9.4 nM.
The result for `CN1CCN(C2CCN(C(=O)Nc3cc(Oc4cc(F)c(NC(=O)C5(C(=O)Nc6ccc(F)cc6)CC5)cc4F)ncn3)CC2)CC1` [Example 101, N-(2,5-Difluoro-4-{[4-({[4-(4-methylpiperazin-1-yl)piperidin-1-yl]carbonyl}amino)pyrimidin-6-yl]oxy}phenyl)-N′-(4-fluorophenyl)cyclopropane-1,1-dicarboxamide] reads 15 nM.
The result for `CN(C)C1CCN(C(=O)Nc2cc(Oc3cc(F)c(NC(=O)C4(C(=O)Nc5ccc(F)cc5)CC4)cc3F)ncn2)CC1` [Example 102, N-(4-{[4-({[4-(Dimethylamino)piperidin-1-yl]carbonyl}amino)pyrimidin-6-yl]oxy}-2,5-difluorophenyl)-N′-(4-fluorophenyl)cyclopropane-1,1-dicarboxamide] reads 41 nM.
With `CN(C)C1CCN(C(=O)Nc2cc(Oc3cc(F)c(NC(=O)C4(C(=O)Nc5ccc(F)cc5)CC4)cc3F)ccn2)CC1` [Example 103, N-(4-{[2-({[4-(Dimethylamino)piperidin-1-yl]carbonyl}amino)pyridin-4-yl]oxy}-2,5-difluorophenyl)-N′-(4-fluorophenyl)cyclopropane-1,1-dicarboxamide], the IC50 worked out at 12 nM.
In the case of `CN1CCN(C(=O)Nc2cc(Oc3cc(F)c(NC(=O)C4(C(=O)Nc5ccc(F)cc5)CC4)cc3F)ccn2)CC1` [Example 104, N-{2,5-Difluoro-4-[(2-{[(4-methylpiperazin-1-yl)carbonyl]amino}pyridin-4-yl]oxy}phenyl)-N′-(4-fluorophenyl)cyclopropane-1,1-dicarboxamide], the half-maximal inhibitory concentration (IC50) worked out at 15 nM.
The result for `O=C(Nc1cc(Oc2cc(F)c(NC(=O)C3(C(=O)Nc4ccc(F)cc4)CC3)cc2F)ccn1)N1CCC(O)CC1` [Example 105] reads 8.6 nM; that for `O=C(Nc1cc(Oc2ccc(NC(=O)C3(C(=O)Nc4ccc(F)cc4)CC3)c(F)c2F)ccn1)N1CC(O)C1` [Example 106, N-[2,3-Difluoro-4-[(2-{[(3-hydroxyazetidin-1-yl)carbonyl]amino}pyridin-4-yl)oxy]phenyl}-N′-(4-fluorophenyl)cyclopropane-1,1-dicarboxamide], 39 nM.
